# In patent US20200031785A1, “METHODS FOR TREATING CHRONIC PAIN AND OPIOID DEPENDENCE USING ADENYLYL CYCLASE INHIBITORS” (Purdue Research Foundation, priority 2017, published 2020):
# Read-outs that look alike come from different tables or passages of the source.
# Tests used:
# hAC8 = molecular target: T1, hAC8 (Homo sapiens, UniProt P40145); assay: Cyclic AMP accumulation in HEK cells stably expressing AC8, stimulated with A23187 (HTRF); format: cell-based; details: for hAC8 % Inhib.: % inhibition at 30 μM (negative values indicate a potentiated response); for inhibition at 30 µM: HEK293
# T1 construct: expressed in transfected cells
# T1 sequence (P40145 whole entry): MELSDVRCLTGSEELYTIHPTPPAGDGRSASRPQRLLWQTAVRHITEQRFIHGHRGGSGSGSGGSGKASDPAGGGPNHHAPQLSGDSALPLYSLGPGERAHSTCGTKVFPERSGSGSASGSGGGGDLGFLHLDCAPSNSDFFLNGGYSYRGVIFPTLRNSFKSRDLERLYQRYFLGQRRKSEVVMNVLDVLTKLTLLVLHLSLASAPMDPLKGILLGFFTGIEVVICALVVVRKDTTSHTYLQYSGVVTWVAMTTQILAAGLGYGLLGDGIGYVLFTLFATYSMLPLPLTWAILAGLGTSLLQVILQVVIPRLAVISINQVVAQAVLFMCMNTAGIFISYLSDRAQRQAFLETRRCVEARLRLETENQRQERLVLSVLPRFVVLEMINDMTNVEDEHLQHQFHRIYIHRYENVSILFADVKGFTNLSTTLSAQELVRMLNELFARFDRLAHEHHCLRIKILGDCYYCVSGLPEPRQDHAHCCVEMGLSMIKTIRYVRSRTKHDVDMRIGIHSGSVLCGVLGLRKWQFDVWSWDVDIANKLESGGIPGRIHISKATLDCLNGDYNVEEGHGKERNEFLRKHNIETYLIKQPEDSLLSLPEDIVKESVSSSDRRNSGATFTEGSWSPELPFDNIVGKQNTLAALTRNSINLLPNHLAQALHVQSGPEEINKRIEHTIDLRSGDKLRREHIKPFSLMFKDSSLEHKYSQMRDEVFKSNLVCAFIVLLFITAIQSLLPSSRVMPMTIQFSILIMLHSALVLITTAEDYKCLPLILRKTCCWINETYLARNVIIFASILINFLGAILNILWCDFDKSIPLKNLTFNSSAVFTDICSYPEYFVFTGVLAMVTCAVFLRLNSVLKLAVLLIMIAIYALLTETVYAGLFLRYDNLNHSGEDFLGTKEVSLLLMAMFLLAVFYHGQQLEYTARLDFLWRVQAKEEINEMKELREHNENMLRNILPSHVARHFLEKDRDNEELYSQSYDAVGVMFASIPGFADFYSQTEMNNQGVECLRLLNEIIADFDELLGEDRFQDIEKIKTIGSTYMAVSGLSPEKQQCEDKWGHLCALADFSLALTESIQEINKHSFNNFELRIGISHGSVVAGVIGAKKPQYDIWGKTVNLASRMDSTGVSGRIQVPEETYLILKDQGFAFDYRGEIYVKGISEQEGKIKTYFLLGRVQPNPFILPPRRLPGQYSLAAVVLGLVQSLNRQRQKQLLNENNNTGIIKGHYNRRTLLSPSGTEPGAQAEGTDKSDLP
# Protocol: (§1) Fresh powders of several robust inhibitors (>90% inhibition) were evaluated in multiple confirmation assays assessing the dose response relationship for inhibiting AC1 and AC8 activity. Confirmation assays used A23817 to selectively stimulate recombinant AC1 or AC8 in the HEK cell background (Cumbay and Watts (2001), J. Pharmacol Exp Ther 297:1201-1399). This approach takes advantage of one unique regulatory property of AC1 for the development of selective inhibitors. Both AC1 and AC8 are robustly activated by Ca^2+/CaM under a variety of conditions, whereas the effects of Ca^2+/CaM on AC3 are modest and conditional requiring activation by G proteins. Previous studies have identified unique Ca^2+/CaM binding domains as one possible site of interaction to achieve AC1 (vs. AC8) selectivity (Masada et al., 2012, Biochemistry 51:7917-7929).
# (§2) The primary technology we employed to measure cAMP accumulation was a homogenous time-resolved fluorescence (HTRF) assay, the same technology utilized in the primary screen. […] This could be due to either 1) the chemical scaffolds are exquisitely selective toward the AC family of enzymes or 2) the library has not been screened against a sufficient number of targets. The answer is likely a combination of the two; nonetheless, the lack of biological data to date bodes well for these series and any potential off-target promiscuity.
# (§3) Human embryonic kidney (HEK) cells stably expressing AC1, AC8, or AC1 with the MOR were cultured in Dulbecco's Modified Eagle Medium (Life Technologies, Grand Island, N.Y.) supplemented with 5% bovine calf serum (Hyclone, Logan, Utah), 5% fetal clone I (Hyclone), Antibiotic-Antimycotic (Life Technologies), and G418 (Invivogen, San Diego, Calif.) (HEK-AC1), or hygromycin B (Fisher Scientific, Pittsburgh, Pa.) (HEK-AC8), or G418 and puromycin (Sigma-Aldrich) (HEK-AC1/MOR). Chinese hamster ovary (CHO) cells expressing the MOR (CHO-MOR) in the PathHunter® β-Arrestin GPCR assay platform were purchased from DiscoveRx (Freemont, Calif.). Cells were grown in Ham's F12 media supplemented with 1 mM L-glutamine (Thermo Scientific, West Palm Beach, Fla.), 10% fetal bovine serum (Hyclone), 50 U/ml penicillin, 50 μg/ml streptomycin (Life Technologies), G418 and hygromycin B. Cells were grown and frozen as previously described (J. M. Conley, et al., J Vis Exp, e51218 (2014)).
# (§4) Cyclic AMP accumulation was measured as previously described (Brust, et al., J. Pharmacol. Exp. Ther. 352, 480-493(2015)). Briefly, cryopreserved cells were thawed, resuspended in optiMEM (Life Technologies), and plated in white, flat bottom, low-volume, tissue culture-treated 384 well plates (PerkinElmer, Shelton, Conn.). Plates with cells were incubated in a 37° C. humidified incubator for 1 h. Inhibitors were added and plates were incubated at room temperature for 30 min followed by the addition of AC stimulants in the presence of 500 μM IBMX. Cells were incubated at room temperature for 1 h and cAMP accumulation was measured using Cisbio's cAMP kit (Cisbio Bioassays, Bedford, Mass.) according to the manufacturer's instructions.
# hAC5 [1] = molecular target: T2, hAC5 (Homo sapiens, UniProt O95622); assay: Cyclic AMP accumulation in stable HEK-AC5 cells, stimulated with 300 nM forskolin; format: cell-based; details: % inhibition at 30 μM, 300 nM forskolin-stimulated, negative = potentiated response, n = 2
# T2 construct: expressed in transfected cells
# T2 sequence (O95622 whole entry): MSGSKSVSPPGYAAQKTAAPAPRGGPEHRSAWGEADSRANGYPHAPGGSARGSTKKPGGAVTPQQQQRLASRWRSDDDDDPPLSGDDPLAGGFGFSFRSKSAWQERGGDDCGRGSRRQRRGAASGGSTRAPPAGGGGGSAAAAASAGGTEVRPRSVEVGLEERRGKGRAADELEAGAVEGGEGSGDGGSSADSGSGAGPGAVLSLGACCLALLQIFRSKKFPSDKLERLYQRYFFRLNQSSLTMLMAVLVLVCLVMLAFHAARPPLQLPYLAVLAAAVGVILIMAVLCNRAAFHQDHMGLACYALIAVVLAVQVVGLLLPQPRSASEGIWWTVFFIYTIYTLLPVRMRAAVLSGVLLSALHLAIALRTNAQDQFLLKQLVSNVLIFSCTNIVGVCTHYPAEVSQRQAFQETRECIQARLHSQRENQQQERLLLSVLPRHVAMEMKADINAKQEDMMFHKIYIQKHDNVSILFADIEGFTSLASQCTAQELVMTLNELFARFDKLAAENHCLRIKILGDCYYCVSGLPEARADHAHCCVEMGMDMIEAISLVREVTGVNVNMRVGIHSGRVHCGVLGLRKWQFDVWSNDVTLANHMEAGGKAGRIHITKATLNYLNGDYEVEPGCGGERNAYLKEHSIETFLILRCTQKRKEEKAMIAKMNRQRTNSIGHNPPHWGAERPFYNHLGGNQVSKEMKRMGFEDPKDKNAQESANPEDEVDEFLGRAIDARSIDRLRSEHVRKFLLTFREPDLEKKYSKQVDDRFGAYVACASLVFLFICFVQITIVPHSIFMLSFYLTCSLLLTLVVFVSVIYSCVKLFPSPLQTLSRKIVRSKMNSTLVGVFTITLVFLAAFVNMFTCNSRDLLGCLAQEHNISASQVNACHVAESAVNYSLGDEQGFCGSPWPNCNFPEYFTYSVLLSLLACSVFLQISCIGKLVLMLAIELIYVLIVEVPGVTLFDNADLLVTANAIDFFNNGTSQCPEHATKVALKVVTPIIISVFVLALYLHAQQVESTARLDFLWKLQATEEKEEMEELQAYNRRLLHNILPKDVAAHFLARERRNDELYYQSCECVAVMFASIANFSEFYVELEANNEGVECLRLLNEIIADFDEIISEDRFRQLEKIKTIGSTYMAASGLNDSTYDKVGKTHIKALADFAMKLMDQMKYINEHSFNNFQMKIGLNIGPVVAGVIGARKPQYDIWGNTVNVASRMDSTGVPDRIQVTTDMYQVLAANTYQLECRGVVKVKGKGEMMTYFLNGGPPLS
# Protocol: as §4
# hAC2 [2] = molecular target: T3, hAC2 (Homo sapiens, UniProt Q08462); assay: Cyclic AMP accumulation in stable HEK-AC2 cells, stimulated with 100 nM PMA; format: cell-based; details: for hAC2 % Inhib.: % inhibition at 30 μM, 100 nM PMA-stimulated, negative = potentiated response, n = 2
# T3 construct: expressed in transfected cells
# T3 sequence (Q08462 whole entry): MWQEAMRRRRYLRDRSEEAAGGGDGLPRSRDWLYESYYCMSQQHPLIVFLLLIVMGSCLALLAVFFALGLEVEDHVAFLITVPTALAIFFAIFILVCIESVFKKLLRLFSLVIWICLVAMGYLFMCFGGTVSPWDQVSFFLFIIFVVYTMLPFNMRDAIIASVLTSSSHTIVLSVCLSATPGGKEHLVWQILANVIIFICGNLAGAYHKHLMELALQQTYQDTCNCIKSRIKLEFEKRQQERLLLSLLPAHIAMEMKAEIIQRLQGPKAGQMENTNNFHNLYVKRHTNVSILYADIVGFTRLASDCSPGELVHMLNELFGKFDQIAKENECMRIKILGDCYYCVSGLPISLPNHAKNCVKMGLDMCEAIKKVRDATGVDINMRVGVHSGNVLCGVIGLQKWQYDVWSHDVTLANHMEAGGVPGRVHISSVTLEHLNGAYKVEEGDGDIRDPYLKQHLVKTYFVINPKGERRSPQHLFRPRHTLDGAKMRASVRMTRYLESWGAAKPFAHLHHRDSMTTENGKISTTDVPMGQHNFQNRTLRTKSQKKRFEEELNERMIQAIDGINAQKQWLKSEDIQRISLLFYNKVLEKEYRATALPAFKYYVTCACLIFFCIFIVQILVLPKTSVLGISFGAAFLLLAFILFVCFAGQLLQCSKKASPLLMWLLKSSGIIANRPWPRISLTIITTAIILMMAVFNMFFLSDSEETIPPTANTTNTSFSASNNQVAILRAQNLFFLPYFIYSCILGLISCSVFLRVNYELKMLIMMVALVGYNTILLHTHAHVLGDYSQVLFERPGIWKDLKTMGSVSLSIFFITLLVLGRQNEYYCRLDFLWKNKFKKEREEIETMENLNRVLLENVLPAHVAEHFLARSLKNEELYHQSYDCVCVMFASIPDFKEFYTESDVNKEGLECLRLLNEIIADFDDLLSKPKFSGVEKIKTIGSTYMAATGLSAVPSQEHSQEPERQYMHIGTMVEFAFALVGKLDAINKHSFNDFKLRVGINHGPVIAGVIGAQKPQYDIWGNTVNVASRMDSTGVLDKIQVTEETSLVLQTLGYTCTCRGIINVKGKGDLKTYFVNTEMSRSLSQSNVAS
# Protocol: as §4
# AC1-HEK cells [3] = system: AC1-HEK cells
# hAC1 = molecular target: T4, hAC1 (Homo sapiens, UniProt Q08828); assay: Cyclic AMP accumulation in HEK cells stably expressing AC1, stimulated with A23187 (HTRF); format: cell-based; details: for Selectivity AC1 vs AC8: AC8 IC50/AC1 IC50, in the absence of AC8 IC50, estimate based on IC50 ≥30 μM; for inhibition at 30 µM: HEK293
# T4 construct: expressed in transfected cells
# T4 sequence (Q08828 whole entry): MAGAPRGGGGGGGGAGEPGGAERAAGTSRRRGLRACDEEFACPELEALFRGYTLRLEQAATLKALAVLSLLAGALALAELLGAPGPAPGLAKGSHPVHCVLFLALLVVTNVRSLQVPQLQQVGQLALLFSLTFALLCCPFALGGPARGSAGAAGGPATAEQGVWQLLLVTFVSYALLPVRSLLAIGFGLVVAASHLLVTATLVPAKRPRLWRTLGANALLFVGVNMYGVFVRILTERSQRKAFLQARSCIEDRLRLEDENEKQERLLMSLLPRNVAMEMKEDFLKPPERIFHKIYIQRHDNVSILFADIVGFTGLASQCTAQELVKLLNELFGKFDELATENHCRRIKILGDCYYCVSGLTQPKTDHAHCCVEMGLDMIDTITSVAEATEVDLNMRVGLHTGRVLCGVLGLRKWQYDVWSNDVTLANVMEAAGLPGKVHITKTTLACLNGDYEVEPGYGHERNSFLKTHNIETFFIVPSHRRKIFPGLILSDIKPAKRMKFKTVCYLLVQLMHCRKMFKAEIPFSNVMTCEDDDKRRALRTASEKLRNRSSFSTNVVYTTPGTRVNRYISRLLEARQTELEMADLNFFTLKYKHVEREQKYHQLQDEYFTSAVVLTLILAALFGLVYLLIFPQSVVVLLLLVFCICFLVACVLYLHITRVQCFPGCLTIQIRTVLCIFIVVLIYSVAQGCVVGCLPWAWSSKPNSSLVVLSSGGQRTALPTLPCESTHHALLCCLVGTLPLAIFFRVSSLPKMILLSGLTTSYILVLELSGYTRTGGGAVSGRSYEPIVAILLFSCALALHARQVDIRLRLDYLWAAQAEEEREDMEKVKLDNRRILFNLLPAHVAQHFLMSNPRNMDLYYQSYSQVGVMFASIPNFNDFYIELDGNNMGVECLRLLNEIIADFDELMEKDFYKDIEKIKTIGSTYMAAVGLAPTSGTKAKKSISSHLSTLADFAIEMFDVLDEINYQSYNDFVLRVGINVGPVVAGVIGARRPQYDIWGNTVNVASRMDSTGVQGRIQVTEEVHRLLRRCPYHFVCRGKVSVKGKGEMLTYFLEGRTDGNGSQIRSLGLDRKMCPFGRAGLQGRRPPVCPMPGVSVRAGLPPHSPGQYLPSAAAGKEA
# Protocol: The development and mechanistic characterization of AC1-selective small molecule inhibitors is believed to provide novel non-opioid weapons in the war on chronic pain. We identified our initial hits via screening 10,000 selected compounds from the Life Chemicals collection. The screen was carried out using HEK cells stably expressing AC1 (HEK-AC1) and cyclic AMP accumulation was stimulated using the Ca^2+ ionophore, A23187 to selectively activate AC1. Compounds with potential chemical liabilities and PAINs were removed from further evaluation (Baell and Holloway, J. Med. Chem. 2010, 53, 2719-2740).
# as §1, §2, §3, §4
# hAC5 [4] = molecular target: T2, hAC5; details: data from Brust et al. 2017; % inhibition at 30 μM, forskolin-stimulated, negative = potentiated; cited from earlier work
# AC1-HEK cells [5] = details: data from Brust et al. 2017; cited from earlier work
# hAC2 [6] = molecular target: T3, hAC2; details: data from Brust et al. 2017; % inhibition at 30 μM, PMA-stimulated, negative = potentiated; cited from earlier work
# chronic pain responses = details: both mice and rats; cited from earlier work
# [7] = stable HEK cell line, A23187-stimulated cAMP accumulation, n ≥ 3
# [8] = stable HEK cell line, A23187-stimulated cAMP accumulation, n ≥ 3, read-out: hAC1 IC50
# [9] = stable HEK cell line, A23187-stimulated cAMP accumulation, n ≥ 3, read-out: hAC8 IC50
# [10] = HEK-AC8 cells, read-out: HEK-AC8 IC50
# [11] = HEK-AC1 cells, read-out: HEK-AC1 IC50
Compound,hAC8 % Inhib. (hAC8),hAC5 % Inhib. (hAC5 [1]),hAC2 % Inhib. (hAC2 [2]),hAC1 % Inhib. (hAC1; [7]),IC50 (hAC1; [8]),inhibition at 30 µM (hAC8; HEK-AC8 cells),inhibition at 30 µM (hAC1; HEK-AC1 cells),IC50 (hAC8; [10]),IC50 (hAC1; [11]),Viability % Vehicle (AC1-HEK cells [3]),also measured
CCc1c(C)nc(-n2nc(C)cc2NC(=O)c2ccco2)[nH]c1=O [F2215-0772],34 ± 7%,13%,32%,100 ± 1%,0.9 ± 0.2 µM,,,,,93 ± 1 % Vehicle,Selectivity AC1 vs AC8 (hAC1): >30-fold
CC1CC(C)CN(S(=O)(=O)c2ccc(C(=O)Nc3nnc(-c4cccs4)o3)cc2)C1 (stereo not shown) [F0559-0346],74 ± 13%,4%,−6%,99 ± 1%,9.1 ± 2 µM,,,,,118 ± 2 % Vehicle,IC50 (hAC8; [9]): 17 ± 6 µM; Selectivity AC1 vs AC8 (hAC1): 2-fold
CCc1cc(=O)[nH]c(-n2nc(C)cc2NC(=O)c2ccccc2F)n1 [F2215-0213],20 ± 1%,9%,−70%,99 ± 1%,0.5 ± 0.1 µM,,,,,101 ± 17 % Vehicle,
CSc1ccccc1C(=O)Nc1cc(C)nn1-c1nc2c(c(=O)[nH]1)CCC2 [F2215-0954],35 ± 8%,−21%,−185%,99 ± 1%,5.9 ± 0.4 µM,,,,,106 ± 14 % Vehicle,Selectivity AC1 vs AC8 (hAC1): >5-fold
O=C(Nc1nnc(-c2ccc3c(c2)CCCC3)o1)c1ccccc1 [F0608-0538],76 ± 8%,−34%,-95%,101 ± 1%,2.1 ± 0.4 µM,,,,,118 ± 6 % Vehicle,IC50 (hAC8; [9]): 21 ± 4 µM; Selectivity AC1 vs AC8 (hAC1): 10-fold
CSc1cccc(C(=O)Nc2nnc(C3CCCCC3)o2)c1 [F2289-0107],31 ± 2%,-28%,−210%,99 ± 1%,7.5 ± 2 µM,,,,,117 ± 1 % Vehicle,Selectivity AC1 vs AC8 (hAC1): >4-fold
O=C(Nc1nnc(-c2ccc3c(c2)OCCO3)o1)c1ccc(Br)cc1 [F0608-0011],79 ± 1%,−10%,-7%,101 ± 1%,2 ± 0.2 µM,,,,,125 ± 3 % Vehicle,IC50 (hAC8; [9]): 18 ± 2 µM; Selectivity AC1 vs AC8 (hAC1): 9-fold
"O=c1cc(C(Cl)(Cl)Cl)oc2ccc(Cl)cc12 [ST034307, 6-chloro-2-(trichloromethyl)-4H-chromen-4-one]",,,,,,,,,,,hAC5 % Inhib. (hAC5 [4]): −44%; Viability % Vehicle (AC1-HEK cells [5]): 85 ± 6 % Vehicle; hAC2 % Inhib. (hAC2 [6]): −142%
Nc1ncnc2c1ncn2CCNCCCCCO [NB001],,,,,,,,,,,effect on chronic pain responses (inflammatory and neuropathic) (chronic pain responses): markedly attenuated chronic pain responses

# The next lines start with results.
hAC8 % Inhib. (hAC8),hAC5 % Inhib. (hAC5 [1]),hAC2 % Inhib. (hAC2 [2]),hAC1 % Inhib. (hAC1; [7]),IC50 (hAC1; [8]),inhibition at 30 µM (hAC8; HEK-AC8 cells),inhibition at 30 µM (hAC1; HEK-AC1 cells),IC50 (hAC8; [10]),IC50 (hAC1; [11]),Compound,Viability % Vehicle (AC1-HEK cells [3]),also measured
,,,,,13 ± 7%,12 ± 4%,,,"O=C(Nc1nnc(-c2ccc(F)cc2)o1)c1ccccc1F [AC10060, 2-fluoro-N-(5-(4-fluorophenyl)-1,3,4-oxadiazol-2-yl)benzamide]",,"inhibition at 10 µM (hAC2 [2]; HEK-AC2 cells, 10 μM, (−) = negative inhibition (potentiated response)): 3 ± 6%"
,,,,,65 ± 12%,64 ± 8%,13 ± 2 µM,26 ± 11 µM,"Cc1ccc(C(=O)Nc2nnc(-c3ccc4c(c3)CCCC4)o2)cc1C(F)(F)F [AC10073, 4-methyl-N-(5-(5,6,7,8-tetrahydronaphthalen-2-yl)-1,3,4-oxadiazol-2-yl)-3-(trifluoromethyl)benzamide]",,
,,,,,8 ± 2%,65 ± 8%,,29 ± 10 µM,"O=C(Nc1nnc(-c2ccc(F)cc2)o1)c1ccccc1 [AC10004, N-(5-(4-fluorophenyl)-1,3,4-oxadiazol-2-yl)benzamide]",,
,,,,,39 ± 7%,88 ± 3%,56 ± 23 µM,7.5 ± 0.7 µM,"CC(C)Oc1ccc(C(=O)Nc2nnc(-c3ccc4c(c3)OCCO4)o2)cc1 [AC10037, N-(5-(2,3-dihydrobenzo[b][1,4]dioxin-6-yl)-1,3,4-oxadiazol-2-yl)-4-isopropoxybenzamide]",,
,,,,,42 ± 4%,93 ± 4%,46 ± 7 µM,6.5 ± 1 µM,"Cc1ccc(C(=O)Nc2nnc(-c3ccc(F)cc3)o2)cc1C [AC10030, N-(5-(4-fluorophenyl)-1,3,4-oxadiazol-2-yl)-3,4-dimethylbenzamide]",,
,,,,,84 ± 3%,98 ± 1%,7 ± 1 µM,2.3 ± 0.4 µM,"O=C(Nc1nnc(-c2ccc(F)cc2)o1)c1cccc(-c2ccccc2)c1 [AC10064, N-(5-(4-fluorophenyl)-1,3,4-oxadiazol-2-yl)-[1,1′-biphenyl]-3-carboxamide]",,
,,,,,24 ± 7%,60 ± 3%,102 ± 26 µM,31 ± 3 µM,"O=C(Nc1nnc(-c2ccc3c(c2)OCCO3)o1)c1ccccc1 [AC10001, N-(5-(2,3-dihydrobenzo[b][1,4]dioxin-6-yl)-1,3,4-oxadiazol-2-yl)benzamide]",,
,,,,,14 ± 3%,64 ± 1%,,17 ± 2 µM,"O=C(Nc1nnc(-c2ccc(F)cc2)o1)c1ccc(F)cc1 [AC10052, 4-fluoro-N-(5-(4-fluorophenyl)-1,3,4-oxadiazol-2-yl)benzamide]",,
,,,,,92 ± 1%,99 ± 1%,1.4 ± 0.4 µM,1.4 ± 0.2 µM,"O=C(Nc1nnc(C2CCCCC2)o1)c1cccc(-c2ccccc2)c1 [AC10063, N-(5-cyclohexyl-1,3,4-oxadiazol-2-yl)-[1,1′-biphenyl]-3-carboxamide]",,
,,,,,44 ± 7%,91 ± 4%,71 ± 14 µM,7.3 ± 3 µM,"CCc1ccc(C(=O)Nc2nnc(C3CCCCC3)o2)cc1 [AC10045, N-(5-cyclohexyl-1,3,4-oxadiazol-2-yl)-4-ethylbenzamide]",,
,,,,,18 ± 10%,84 ± 5%,115 ± 43 µM,9.6 ± 3 µM,"COc1cccc(C(=O)Nc2nnc(-c3ccc4c(c3)OCCO4)o2)c1 [AC10038, N-(5-(2,3-dihydrobenzo[b][1,4]dioxin-6-yl)-1,3,4-oxadiazol-2-yl)-3-methoxybenzamide]",,
,,,,,35 ± 8%,86 ± 7%,53 ± 21 µM,10.1 ± 1 µM,"CC(C)Oc1ccc(C(=O)Nc2nnc(C3CCCCC3)o2)cc1 [AC10025, N-(5-cyclohexyl-1,3,4-oxadiazol-2-yl)-4-isopropoxybenzamide]",,
